Measured values from patent publication US20190255091A1, “RNAi AGENTS FOR [sequence] B VIRUS INFECTION” (priority 2016, published 2019).

System: Hepatitis B Virus (HBV)
Assay: Serum HBeAg levels in pHBV model mice (ELISA)
Type: in vivo
Set-up: key to Average HBeAg levels normalized to pre-treatment and PBS control: ratio to pre-treatment level, divided by PBS control ratio
Conditions: for Average HBeAg fold knockdown normalized to pre-treatment and PBS control / Average HBeAg levels normalized to pre-treatment and PBS control: single s.c. injection day 1, Example 7; for Average HBeAg levels normalized to pre-treatment and PBS control: pooled serum
Excerpt: Six to eight-week-old female NOD.CB17-Prkdscid/NcrCrl (NOD-SCID) mice were transiently transfected in vivo with MC-HBV1.3 by hydrodynamic tail vein injection (Yang P L et al. “Hydrodynamic injection of viral DNA: a mouse model of acute hepatitis B virus infection,” PNAS USA 2002 Vol. 99: p. 13825-13830), administered 30 to 45 days prior to administration of an HBV RNAi agent or control. MC-HBV1.3 is a plasmid-derived minicircle that contains the same terminally redundant human hepatitis B virus sequence HBV1.3 as in plasmid pHBV1.3 and in the HBV1.3.32 transgenic mice (GenBank accession #V01460) (Guidotti L G et al., “High-level hepatitis B virus replication in transgenic mice,” J Virol 1995 Vol. 69, p 6158-6169.). 5 or 10 μg MC-HBV1.3 in Ringer's Solution in a total volume of 10% of the animal's body weight was injected into mice via tail vein to create pHBV model of chronic HBV infection. The solution was injected through a 27-gauge needle in 5-7 seconds as previously described (Zhang G et al., “High levels of foreign gene expression in hepatocytes after tail vein injection of naked plasmid DNA.” Human Gene Therapy 1999 Vol. 10, p 1735-1737.). At pre-dose (either day 1 pre-dose, day −1, or day −2), Hepatitis B surface antigen (HBsAg) HBsAg expression levels in serum were measured by ELISA and the mice were grouped according to average HBsAg expression levels.
HBV expression levels were normalized to pre-administration expression levels and to control mice injected with phosphate buffered saline (“PBS”).
HBeAg analysis was performed with the HBeAg enzyme linked immunosorbent assay (ELISA) as described by the manufacturer (DiaSorin) using serum diluted 4- to 20-fold in 5% nonfat dry milk. The amount of antigen was determined in the linear range of the assay and quantitated against HBeAg protein standards (Fitzgerald Industries International, catalog #30-AH18, Acton, Mass.).
HBeAg expression for each animal was normalized to the control group of mice injected with PBS in order to account for the non-treatment related decline in expression of MC-HBV1.3. For evaluation of HBeAg in serum, HBeAg is analyzed from pooled group or subgroup serum samples. First, the HBeAg level for each pooled group or subgroup was divided by the pre-treatment level of expression in the same group or subgroup in order to determine the ratio of expression “normalized to pre-treatment”. Expression at a specific time point was then normalized to the control group by dividing the “normalized to pre-treatment” ratio for a group or subgroup by the average “normalized to pre-treatment” ratio of all samples from the normal PBS control group.

Substance	Average HBeAg fold knockdown normalized to pre-treatment and PBS control (Day 8, 1.0 mg/kg) [Fold KD]	Average HBeAg levels normalized to pre-treatment and PBS control (Day 8, 1.0 mg/kg)	Average HBeAg fold knockdown normalized to pre-treatment and PBS control (Day 8, 2.0 mg/kg) [Fold KD]	Average HBeAg levels normalized to pre-treatment and PBS control (Day 8, 2.0 mg/kg)	Average HBeAg fold knockdown normalized to pre-treatment and PBS control (Day 15, 1.0 mg/kg) [Fold KD]	Average HBeAg levels normalized to pre-treatment and PBS control (Day 15, 1.0 mg/kg)	Average HBeAg fold knockdown normalized to pre-treatment and PBS control (Day 15, 2.0 mg/kg) [Fold KD]	Average HBeAg levels normalized to pre-treatment and PBS control (Day 15, 2.0 mg/kg)	Average HBeAg fold knockdown normalized to pre-treatment and PBS control (Day 22, 1.0 mg/kg) [Fold KD]	Average HBeAg levels normalized to pre-treatment and PBS control (Day 22, 1.0 mg/kg)	Average HBeAg fold knockdown normalized to pre-treatment and PBS control (Day 22, 2.0 mg/kg) [Fold KD]	Average HBeAg levels normalized to pre-treatment and PBS control (Day 22, 2.0 mg/kg)	Average HBeAg fold knockdown normalized to pre-treatment and PBS control (Day 29, 1.0 mg/kg) [Fold KD]	Average HBeAg levels normalized to pre-treatment and PBS control (Day 29, 1.0 mg/kg)	Average HBeAg fold knockdown normalized to pre-treatment and PBS control (Day 29, 2.0 mg/kg) [Fold KD]	Average HBeAg levels normalized to pre-treatment and PBS control (Day 29, 2.0 mg/kg)	Average HBeAg fold knockdown normalized to pre-treatment and PBS control (Day 36, 1.0 mg/kg) [Fold KD]	Average HBeAg levels normalized to pre-treatment and PBS control (Day 36, 1.0 mg/kg)	Average HBeAg fold knockdown normalized to pre-treatment and PBS control (Day 36, 2.0 mg/kg) [Fold KD]	Average HBeAg levels normalized to pre-treatment and PBS control (Day 36, 2.0 mg/kg)	also measured
AD04776: HBV RNAi agent duplex AM05850-AS/AM06150-SS (antisense UACCAAUUUAUGCCUACAGCC; sense GGCUGUAGGCAUAAAUUGGUA; chemistry not fully specified)	2.6	0.381	3.6	0.275	2.7	0.368	3.9	0.255	2.8	0.355	2.7	0.370	1.8	0.564	2.0	0.495	2.1	0.483	2.2	0.449	Average HBeAg fold knockdown normalized to pre-treatment and PBS control (Day 8, 4.0 mg/kg): 5.2 Fold KD; Average HBeAg levels normalized to pre-treatment and PBS control (Day 8, 4.0 mg/kg): 0.193; Average HBeAg fold knockdown normalized to pre-treatment and PBS control (Day 15, 4.0 mg/kg): 4.7 Fold KD; Average HBeAg levels normalized to pre-treatment and PBS control (Day 15, 4.0 mg/kg): 0.213; Average HBeAg fold knockdown normalized to pre-treatment and PBS control (Day 22, 4.0 mg/kg): 3.8 Fold KD; Average HBeAg levels normalized to pre-treatment and PBS control (Day 22, 4.0 mg/kg): 0.260; Average HBeAg fold knockdown normalized to pre-treatment and PBS control (Day 29, 4.0 mg/kg): 3.3 Fold KD; Average HBeAg levels normalized to pre-treatment and PBS control (Day 29, 4.0 mg/kg): 0.307; Average HBeAg fold knockdown normalized to pre-treatment and PBS control (Day 36, 4.0 mg/kg): 2.2 Fold KD; Average HBeAg levels normalized to pre-treatment and PBS control (Day 36, 4.0 mg/kg): 0.464
AD04982: HBV RNAi agent duplex AM06464-AS/AM06150-SS (antisense UACCAAUUUAUGCCUACAGCC; sense GGCUGUAGGCAUAAAUUGGUA; chemistry not fully specified)	2.1	0.471	3.0	0.335	2.4	0.424	3.2	0.310	1.8	0.562	2.4	0.411	2.0	0.513	2.3	0.442	1.4	0.705	2.0	0.500	fold decrease of HBeAg (Example 7 Group D, 2.0 mg/kg AD04982, day 15): 3.2 fold
